For test [1], the target named is KCNQ4 potassium ion channel (Homo sapiens, UniProt P56696). Nature of the test: High throughput atomic absorption Rb+ efflux testing, CHO cell of KCNQ4 channel. Conditions: for EC50: CHO cell of KCNQ4 channel. The format is cell-based. The text has this: Atomic absorption Rb^+ efflux testing is a fast and safe selection method for high throughput potassium channel moderator, and is characterized in that the activity of the ion channel and the control effect of the opener are directly reflected. Rb and K have similar atomic size, and potassium ion channel is permeable to Rb^+. By testing concentration of the Rb^+ efflux, a status of the potassium channel, which is an open status or a close status, can be determined. Rb has specific absorption at 780 nm, and Rb^+ concentration can be determined by atomic absorption spectroscopy. Accordingly, analysis method of atomic absorption spectroscopy can be used to select the opener/inhibitor of potassium channel through high throughput of Rb^+ efflux.
Stable cell transfer of CHO cell of KCNQ4 channel at log phase and inoculate in 96-well culture plate at a density of 2×10^4 unit/well. Each concentration has a triplicate-hole setting, and a control setting with solvent of corresponding concentration. Allow growth against the well-wall overnight, then discard the culture medium, add 200 μl loading buffer which contains RbCl, and culture in 5% CO2 at 37° C. for 3 hours. Then remove the loading buffer and wash with wash buffer for 3 times. Screen for the KCNQ opener, dilute testing compound with depolarization buffer, add 200 μl of the above solvent into the cell and allow reaction for 10 minutes. Incubate for 10 minutes, then carefully draw 200 μl supernatant to another 96-well culture plate, use ICR8000 atomic absorption spectrometry to determine the Rb^+ atomic absorption at 780 nm. Based on the equation Fsupern=(Rb_supern/cpd/Rb_supern/d)×100, calculate the corresponding rate of efflux.

The target of a further test is T1, KCNQ2/3 (Homo sapiens, UniProt O43525+O43526).
T1 construct: expressed in transfected cells
The test can be described thus: High throughput atomic absorption Rb+ efflux testing, KCNQ2/3. The format is cell-based. The note with it: Rb+ efflux by atomic absorption.

For another test, the system named is Male SD rats. The test can be described thus: Formalin-induced pain model. Conditions: rat. The test is classed as in vivo. The procedure: Pharmaceutical composition used: the compound number 42 for the testing group, no medication for the positive control group, which is a blank control model.
Testing method: Male SD rats are randomly divided into control group, ipsilateral treatment group (treatment on the same side) and contralateral treatment group (treatment on the opposite side). After 30 minutes from administration of pharmaceutical compound, administer 20 μl of 20 g/L formalin by subcutaneous injection in foot bottom of back paw on the same side or the opposite side of pharmaceutical compound administration, an occurrence of typical lateral swinging and shaking of rat's tail is deemed as successful in preparing induced-pain model, in the next 60 minutes, observe the rat's licking and biting behavior towards the formalin's injection paw at each 5-min interval.

Where [2] appears, read: Rb+ efflux by atomic absorption, read-out: KCNQ4.

Like-named read-outs stand apart in the source and are kept apart here.

As for `O=c1cc(C(F)(F)F)[nH]c2c(-c3cccc4ccccc34)c(C(F)(F)F)nn12` [Compound 38, 2,5-bis(trifluoromethyl)-3-(naphthalen-1-yl)pyrazolo[1,5-a]pyrimidin-7(4H)-one], the EC50 in test [1] (setting [2]) worked out at 4.82 ± 3.45 µM; on KCNQ2/3 it was 9.29 ± 26.3 µM.
On the same counts, the results for `O=c1cc(-c2cc(F)c(Cl)nc2Cl)[nH]c2c(-c3ccc(F)cc3)c(C(F)(F)F)nn12` [Compound 18, 5-(2,6-dichloro-5-fluoropyrindin-3-yl)-3-(4-fluorophenyl)-2-(trifluoromethyl)pyrazolo[1,5-a]pyrimidin-7(4H)-one] are 120 ± 3.23 µM and 78.7 ± 12.3 µM.
Turning to `O=c1cc(C(F)(F)F)[nH]c2c(-c3ccccc3)c(C(F)(F)F)nn12` [Compound 20, 2,5 bis(trifluoromethyl)-3-phenylpyrazolo [1,5-a]pyrimidin-7(4H)-one], the EC50 amounted to 5.87 ± 2.67 µM in test [1] (setting [2]) and 1.28 ± 1.16 µM at KCNQ2/3.
Take `O=c1cc(CCl)[nH]c2c(-c3cccs3)c(Cl)nn12` [Compound 108, 2-chloro-3-(thiophen-2-yl)-5-chloromethylpyrazolo[1,5-a]pyrimidin-7(4H)-one]: the figures for the EC50 (in test [1] (setting [2]); at KCNQ2/3) were 91.2 ± 33.2 µM and 56.8 ± 19.4 µM, respectively.
For the molecule `COc1ccc(-c2cc(=O)n3nc(C(F)(F)F)c(-c4cccc5ccccc45)c3[nH]2)cc1` [Compound 47, 5-(4-methoxyphenyl)-3-(naphthalen-1-yl)-2-trifluoromethylpyrazolo[1,5-a]pyrimidin-7(4H)-one], the EC50 in test [1] (setting [2]) was 46.2 ± 2.34 µM; on KCNQ2/3, 89.2 ± 24.2 µM.
On the same counts, the results for `O=C(Cc1ccc(C(F)(F)F)cc1)NCc1cc(=O)n2nc(C(F)(F)F)c(-c3ccccc3)c2[nH]1` [Compound 35] are 44.5 ± 5.28 µM and 138 ± 9.28 µM.
The corresponding values for `CCOC(=O)c1c(C(F)(F)F)nn2c(=O)cc(-c3ccccc3)[nH]c12` [Compound 5] are 67.8 ± 2.67 µM and 100 ± 13.3 µM.
On the same counts, the results for `CCOC(=O)c1c(-c2ccc(Cl)cc2)nn2c(=O)cc(C(F)(F)F)[nH]c12` [Compound 73, ethyl 7-oxo-2-(4-chlorophenyl)-5-(trifluoromethyl)-4,7-dihydropyrazolo[1,5-a]pyrimidine-3-carboxylate] are 60.6 ± 3.28 µM and 135 ± 32.2 µM.
Take `O=c1cc(CN2CCNCC2)[nH]c2c(-c3cccs3)c(C(F)(F)F)nn12` [Compound 61]: the results for the EC50 (in test [1] (setting [2]); at KCNQ2/3) were 33.3 ± 2.12 µM and 77.7 ± 21.3 µM, respectively.
Regarding `O=c1cc(-c2cc(F)c(F)cc2F)[nH]c2c(-c3ccccc3)c(C(Cl)(Cl)Cl)nn12` [Compound 99, 3-phenyl-2-trichloromethyl-5-(2,4,5-trifluorophenyl)pyrazolo[1,5-a]pyrimidin-7(4H)-one], the figures for the EC50 (in test [1] (setting [2]); on KCNQ2/3) were 18.4 ± 1.34 µM and 54.5 ± 32.1 µM, respectively.
On the same counts, the results for `O=c1cc(-c2ccc(Cl)cc2)[nH]c2c(-c3ccc(F)cc3)c(C(F)(F)F)nn12` [Compound 8, 2-trifluoromethyl-3-(4-fluorophenyl)-5-(4-chlorophenyl)-pyrazole[1,5-a]pyrimidin-7(4H)-one] are 24.5 ± 4.67 µM and 4.76 ± 1.35 µM.
In the case of `O=c1cc(CCl)[nH]c2c(-c3cccc4ccccc34)c(C(F)(F)F)nn12` [Compound 39, 5-chloromethyl-3-(naphthalen-1-yl)-2-trifluoromethylpyrazolo[1,5-a]pyrimidin-7(4H)-one], the EC50 stood at 21.7 ± 9.72 µM in test [1] (setting [2]) and 5.21 ± 3.21 µM at KCNQ2/3.
Turning to `O=c1cc(CCl)[nH]c2c(-c3cccs3)c(C(F)(F)F)nn12` [Compound 96, 5-chloromethyl-3-(thiophen-2-yl)-2-trifluoromethylpyrazolo[1,5-a]pyrimidin-7(4H)-one], the EC50 in test [1] (setting [2]) is 5.41 ± 2.29 µM.
Take `O=c1cc(-c2cc(F)c(Cl)nc2Cl)[nH]c2c(-c3cccs3)c(C(F)(F)F)nn12` [Compound 60]: the EC50 in test [1] (setting [2]) stood at 1.14 ± 0.34 µM; on KCNQ2/3, 5.32 ± 2.23 µM.
The corresponding values for `O=c1cc(-c2cc(F)c(Cl)nc2Cl)[nH]c2c(-c3cccs3)c(C(Cl)(Cl)Cl)nn12` [Compound 94, 5-(2,6-dichloro-5-fluoropyrido)-3-(thiophen-2-yl)-2-trichloromethyl pyrazolo[1,5-a]pyrimidin-7(4H)-one] are 0.54 ± 0.23 µM and 0.28 ± 0.32 µM.
On to `O=C(OCc1cc(=O)n2nc(C(F)(F)F)c(N3CCNCC3)c2[nH]1)C(F)(F)F` [Compound 86, (2-trifluoromethyl-3-piperazinyl-7-oxo-4,7-dihydropyrazolo[1,5-a]pyrimidin-5-yl)methyl-2,2,2-trifluoroacetate], for which the EC50 is 50.1 ± 1.34 µM in test [1] (setting [2]) and 98.3 ± 65.2 µM on KCNQ2/3.
The corresponding values for `O=C(NCc1cc(=O)n2nc(Cl)c(-c3ccc4ccccc4c3)c2[nH]1)C(F)(F)F` [Compound 116, N-((2-chloro-3-(naphthalen-2-yl)-7-oxo-4,7-dihydropyrazolo[1,5-a]pyrimidin-5-yl)methyl)-2,2,2-trifluoroacetamide] are 43.2 ± 13.7 µM and 210 ± 9.8 µM.
The corresponding values for `O=c1cc(-c2cccc([N+](=O)[O-])c2)[nH]c2c(-c3ccccc3)c(C(F)(F)F)nn12` [Compound 30, 5-(3-nitrophenyl)-3-phenyl-2-trifluoromethylpyrazolo[1,5-a]pyrimidin-7(4H)-one] are 12.2 ± 0.82 µM and 1.26 ± 0.68 µM.
On the same counts, the results for `O=c1cc(CN2CCCCC2)[nH]c2c(-c3ccccc3)c(C(F)(F)F)nn12` [Compound 25, 5-(piperidin-1-ylmethyl)-3-phenyl-2-trifluoromethylpyrazolo[1,5-a]pyrimidin-7(4H)-one] are 35 ± 1.21 µM and 85.3 ± 3.45 µM.
With `O=c1cc(-c2cc(F)c(Cl)nc2Cl)[nH]c2c(-c3ccc(F)cc3)c(C(F)(F)F)nn12` [Compound 22], the EC50 in test [1] (setting [2]) worked out at 0.15 ± 0.09 µM; on KCNQ2/3 it was 1.28 ± 0.12 µM.
The corresponding values for `O=c1cc(-c2ccccc2)[nH]c2c(-c3ccccc3)c(C(F)(F)F)nn12` [Compound 19, 3,5-diphenyl-2-(trifluoromethyl)pyrazolo[1,5-a]pyrimidin-7(4H)-one] are 62.1 ± 1.12 µM and 40.2 ± 2.34 µM.
For `O=c1cc(-c2cc(F)c(Cl)nc2Cl)[nH]c2c(-c3cccc4ccccc34)c(C(F)(F)F)nn12` [Compound 42], the “activating effect on the CHO cell of the KCNQ4 potassium ion channel” value in test [1] (Rb+ efflux at 0.03, 0.1, 0.6, 1, 3 and 10 μM, FIG. 4) is reported as “dose-dependent activating effect”. Also, the EC50 stood at 0.96 ± 0.51 µM in test [1] (Rb+ efflux, 0.03-10 μM, FIG. 4, read-out: EC50) and 0.53 ± 0.28 µM on KCNQ2/3. Besides, in the test on Male SD rats (0-10 min after formalin injection, treatment vs control group, p>0.05), the “accumulated time of licking/biting back paw, first phase” value was “no significant difference”. The “accumulated time of licking/biting back paw, second phase” value with Male SD rats (10-60 min after formalin, ipsilateral treatment group vs control group, p<0.05) is listed as “decrease in accumulated time of licking/biting back paw”.
For `COc1ccc(-c2c(C(F)(F)F)nn3c(=O)cc(-c4cc(F)c(Cl)nc4Cl)[nH]c23)cc1OC` [Compound 23], the EC50 in test [1] (setting [2]) was determined as 10.3 ± 0.43 µM; on KCNQ2/3, 22.1 ± 1.23 µM.
In the case of `COc1ccc(-c2c(C(F)(F)F)nn3c(=O)cc(C(F)(F)F)[nH]c23)cc1OC` [Compound 2, 3-(3,4-dimethoxyphenyl)-2,5-bis(trifluoromethyl)pyrazolo[1,5-a]pyrimidin-7(4H)-one], the EC50 in test [1] (setting [2]) is 12.1 ± 0.23 µM; on KCNQ2/3, 5.65 ± 3.13 µM.
On the same counts, the results for `O=c1cc(C(F)(F)F)[nH]c2c(-c3c[nH]c4ccccc34)c(-c3ccc(Cl)cc3)nn12` [Compound 77, 2-(4-chlorophenyl)-3-(1H-indol-3-yl)-5-trifluoromethylpyrazolo[1,5-a]pyrimidin-7(4H)-one] are 82.3 ± 19.3 µM and 32.2 ± 9.32 µM.
